Source: ChEMBL document CHEMBL1201862, “PubChem BioAssay data set” (2004)
Each block holds one compound with its values, some of them ahead of it. Active and inactive are the calls of the source.

Key:
[1] = target: Dual specificity protein kinase CLK1 (Homo sapiens, UniProt P49759); experiment: CLK1 kinase inhibitors, off-target check, dose response, selectivity assay for Dyrk1A inhibitor project, biochemical, cherry-picked samples (AID 588811)
[2] = target: CAAX prenyl protease 1 (Saccharomyces cerevisiae S288c, UniProt P47154); experiment: Ste24 protease inhibitors, dose response, biochemical, S. cerevisiae, plate reader, cherry-pick (AID 488815)
Sequence of CAAX prenyl protease 1 (P47154 whole entry): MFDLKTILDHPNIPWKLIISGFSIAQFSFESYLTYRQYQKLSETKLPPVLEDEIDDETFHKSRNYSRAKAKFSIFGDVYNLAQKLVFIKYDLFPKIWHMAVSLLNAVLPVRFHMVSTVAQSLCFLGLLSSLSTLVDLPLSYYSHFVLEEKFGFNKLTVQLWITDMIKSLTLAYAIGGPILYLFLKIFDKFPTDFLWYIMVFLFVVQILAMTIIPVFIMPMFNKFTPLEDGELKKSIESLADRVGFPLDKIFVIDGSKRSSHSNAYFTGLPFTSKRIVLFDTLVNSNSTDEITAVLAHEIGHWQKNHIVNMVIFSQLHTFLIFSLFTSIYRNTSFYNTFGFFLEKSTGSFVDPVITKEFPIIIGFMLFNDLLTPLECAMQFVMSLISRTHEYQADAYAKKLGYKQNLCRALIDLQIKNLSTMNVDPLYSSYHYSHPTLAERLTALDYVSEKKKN

[3] = Luminescence Cell-Based Dose Retest to Confirm Inhibitors of Cancer Stem Cells. [Related pubchem assays (depositor defined):AID2717, AID2721]; type: functional; details: Homo sapiens
[4] = cytotoxicity toward NIH3T3 fibroblasts, dose response, counter-screen, cell-based, ATP luminescence, mouse fibroblasts (AID 2010); type: functional;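 further: cells exposed to compound for about 90 hours before reading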
[5] = inhibitors of intracellular T. cruzi replication, confirmation, NIH3T3 host cells, beta-gal luminescence (AID 2044); type: functional, cell-based;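 further: intracellular parasites grown in NIH/3T3 mouse fibroblasts as host cells; luminescent beta-galactosidase reporter signal from transgenic T. cruzi replicating inside host cells; inhibitors lower the luminescence signal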
[6] = cytotoxicity in HMLE control line with eGFP shRNA, dose response, counter-screen for HMLE_sh_ECad selective toxicity project, cell-based, HMLE_sh_eGFP, luminescence (AID 463074); type: functional, Homo sapiens;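 further: HMLE human mammary epithelial cells expressing control shRNA against eGFP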
[7] = test system: BJ; experiment: cells; type: functional, cell-based; details: Homo sapiens
[8] = test system: BJ; experiment: cytotoxicity toward Ras-transformed BJeLR fibroblasts, dose response, cell-based, alamar blue fluorescence, cherrypicked samples (AID 2631); type: functional; details: Homo sapiens;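 further: confirmatory dose-response assay in RAS-dependent BJ fibroblasts engineered with TERT, LT and ST, with cytotoxicity read by fluorescence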
[9] = target: T1, DNA repair protein RAD52 homolog (Homo sapiens, UniProt P43351); type: functional, biochemical
T1 sequence (P43351 whole entry): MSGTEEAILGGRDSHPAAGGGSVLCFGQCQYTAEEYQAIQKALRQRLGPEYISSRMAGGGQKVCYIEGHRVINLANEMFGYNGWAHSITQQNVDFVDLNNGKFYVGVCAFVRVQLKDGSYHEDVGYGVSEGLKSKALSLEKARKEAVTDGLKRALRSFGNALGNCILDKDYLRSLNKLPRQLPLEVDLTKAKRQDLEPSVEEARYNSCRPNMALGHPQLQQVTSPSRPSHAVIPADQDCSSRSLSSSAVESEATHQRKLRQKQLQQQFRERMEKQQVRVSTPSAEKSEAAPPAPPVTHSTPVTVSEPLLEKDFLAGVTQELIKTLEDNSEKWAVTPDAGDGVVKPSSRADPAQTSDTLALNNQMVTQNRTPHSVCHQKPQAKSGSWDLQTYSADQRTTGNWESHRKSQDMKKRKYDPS

[10] = cytotoxicity in HEK-293T cells, dose response, cytotoxicity control for TCR NF-kB inhibitor project, luminescence, T-cell screen hits (AID 489026); type: functional, cell-based;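 further: cells exposed to compound about 14 hours before the viability readout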
[11] = target: T2, Polyadenylate-binding protein 1 (Homo sapiens, UniProt P11940); experiment: PABP1 MLLE–PAM2 binding inhibitor potency, dose response, biochemical, fluorescence polarization, FITC-PAM2 peptide (AID 602259); type: functional; details: read-out: IC50_Mean
T2 sequence (P11940 whole entry): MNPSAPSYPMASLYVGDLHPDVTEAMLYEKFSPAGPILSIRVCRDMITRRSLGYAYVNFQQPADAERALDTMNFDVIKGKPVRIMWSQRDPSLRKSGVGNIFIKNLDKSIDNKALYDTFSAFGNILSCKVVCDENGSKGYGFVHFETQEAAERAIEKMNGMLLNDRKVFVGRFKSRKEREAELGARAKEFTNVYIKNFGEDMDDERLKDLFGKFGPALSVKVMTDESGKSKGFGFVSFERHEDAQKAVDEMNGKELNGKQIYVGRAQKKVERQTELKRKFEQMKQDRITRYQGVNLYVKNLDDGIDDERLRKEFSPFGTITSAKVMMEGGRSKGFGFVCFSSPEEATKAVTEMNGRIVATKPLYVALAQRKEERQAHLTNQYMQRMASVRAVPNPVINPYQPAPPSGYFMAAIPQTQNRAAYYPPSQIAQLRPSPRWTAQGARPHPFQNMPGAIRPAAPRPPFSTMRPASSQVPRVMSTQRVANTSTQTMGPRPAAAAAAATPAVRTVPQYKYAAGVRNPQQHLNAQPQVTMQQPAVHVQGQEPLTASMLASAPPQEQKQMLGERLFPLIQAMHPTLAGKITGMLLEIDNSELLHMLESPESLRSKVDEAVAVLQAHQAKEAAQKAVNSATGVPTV

[12] = test system: BJ; experiment: cytotoxicity toward BJ-TERT fibroblasts, dose response, cell-based, RAS-independent, luminescence (AID 1933); type: functional; details: Homo sapiens
[13] = Luminescence-based cell-based high throughput dose response assay to identify activators of the DAF-12 from the parasite S. stercoralis (ssDAF-12).; type: functional
[14] = target: T2, Polyadenylate-binding protein 1; experiment: PABP1 MLLE–PAM2 interaction inhibitors, dose response, miRNA deadenylation inhibitor project, biochemical, fluorescence polarization, Cy5-PAM2 peptide, secondary (AID 602260); type: functional; details: read-out: IC50_Mean
[15] = cytotoxicity toward DRD oncogenic fibroblasts, dose response, cell-based, non-viral oncogenic, luminescence (AID 1934); type: functional; details: Homo sapiens
[16] = target: Sphingosine 1-phosphate receptor 4 (Homo sapiens, UniProt O95977); experiment: Fluorescence dose response cell-based high throughput screening assay for agonists of the Sphingosine 1-Phosphate Receptor 4 (S1P4). [Related pubchem assays: 1509 (Primary screen.), 1523 (Confirmation screen in triplicates.)]; type: functional
Sequence of Sphingosine 1-phosphate receptor 4 (O95977 whole entry): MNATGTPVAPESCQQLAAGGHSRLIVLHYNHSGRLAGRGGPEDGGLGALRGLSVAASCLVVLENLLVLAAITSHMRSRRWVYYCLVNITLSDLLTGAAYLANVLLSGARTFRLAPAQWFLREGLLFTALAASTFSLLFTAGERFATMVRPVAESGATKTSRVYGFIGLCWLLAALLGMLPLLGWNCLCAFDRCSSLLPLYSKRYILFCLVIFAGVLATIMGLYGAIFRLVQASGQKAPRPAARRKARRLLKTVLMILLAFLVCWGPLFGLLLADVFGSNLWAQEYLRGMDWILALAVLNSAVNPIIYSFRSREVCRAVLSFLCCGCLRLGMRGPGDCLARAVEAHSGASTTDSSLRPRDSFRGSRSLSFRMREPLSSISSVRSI

[17] = target: T3, DNA repair and recombination protein RAD54-like (Homo sapiens, UniProt Q92698); experiment: inhibitors of human RAD54 branch migration, confirmation, biochemical, fluorescence, cherry-picked samples, dose series (AID 651657); type: functional
T3 sequence (Q92698 whole entry): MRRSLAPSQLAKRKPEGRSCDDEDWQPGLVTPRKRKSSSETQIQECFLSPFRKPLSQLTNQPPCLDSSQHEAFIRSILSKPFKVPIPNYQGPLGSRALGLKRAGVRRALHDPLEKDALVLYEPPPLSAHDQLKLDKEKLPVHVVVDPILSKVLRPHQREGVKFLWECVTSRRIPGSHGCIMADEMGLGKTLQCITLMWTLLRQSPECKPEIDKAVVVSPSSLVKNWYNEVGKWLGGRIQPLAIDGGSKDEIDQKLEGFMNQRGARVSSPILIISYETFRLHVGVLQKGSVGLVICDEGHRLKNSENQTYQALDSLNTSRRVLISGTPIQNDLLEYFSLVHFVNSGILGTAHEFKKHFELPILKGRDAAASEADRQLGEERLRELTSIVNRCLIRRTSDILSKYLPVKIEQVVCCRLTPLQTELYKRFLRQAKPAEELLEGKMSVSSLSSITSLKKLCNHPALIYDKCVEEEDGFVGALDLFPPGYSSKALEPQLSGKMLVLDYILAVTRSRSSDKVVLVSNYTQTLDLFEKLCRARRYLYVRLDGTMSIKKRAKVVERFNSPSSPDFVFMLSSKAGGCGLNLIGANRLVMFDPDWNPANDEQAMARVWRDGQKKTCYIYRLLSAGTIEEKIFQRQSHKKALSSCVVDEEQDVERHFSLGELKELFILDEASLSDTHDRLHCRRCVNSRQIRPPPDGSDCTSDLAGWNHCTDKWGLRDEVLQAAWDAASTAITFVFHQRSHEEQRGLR

[18] = test system: BJ; experiment: cytotoxicity toward BJ-TERT-LT-ST fibroblasts, dose response, cell-based, RAS-independent, luminescence (AID 1935); type: functional; details: Homo sapiens;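 further: BJ fibroblasts immortalized with TERT plus LT and ST oncogenes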
[19] = target: Paired box protein Pax-8 (Homo sapiens, UniProt Q06710); experiment: inhibitors of PAX8-driven TPO luciferase reporter, dose response, RMG-I cells, cherry-pick (AID 687027); type: functional, cell-based;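 further: luciferase reporter driven by Pax8 target thyroperoxidase promoter measured by SteadyGlo luminescence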
Sequence of Paired box protein Pax-8 (Q06710 whole entry): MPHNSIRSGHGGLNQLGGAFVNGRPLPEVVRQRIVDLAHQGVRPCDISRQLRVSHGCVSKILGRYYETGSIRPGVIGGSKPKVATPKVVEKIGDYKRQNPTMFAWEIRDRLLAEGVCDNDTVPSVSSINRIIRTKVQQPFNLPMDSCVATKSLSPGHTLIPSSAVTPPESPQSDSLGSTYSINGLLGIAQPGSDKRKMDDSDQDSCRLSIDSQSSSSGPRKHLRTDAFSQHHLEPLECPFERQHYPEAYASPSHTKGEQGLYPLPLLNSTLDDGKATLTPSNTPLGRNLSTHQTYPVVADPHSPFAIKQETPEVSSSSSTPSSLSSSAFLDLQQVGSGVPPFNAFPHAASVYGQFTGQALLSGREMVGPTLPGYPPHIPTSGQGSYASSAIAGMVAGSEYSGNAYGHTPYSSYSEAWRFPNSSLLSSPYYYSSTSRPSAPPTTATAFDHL

[20] = target: Sphingosine 1-phosphate receptor 1 (Homo sapiens, UniProt P21453); experiment: Fluorescence-based counterscreen assay for S1P4 agonists: Cell-based dose response high throughput screening assay to identify agonists of the Sphingosine 1-Phosphate Receptor 1 (S1P1). [Related pubchem assays (depositor defined):AID1509, AID1523, AID1801, AID463107, AID463118, AID463119, AID463122, AID463123, AID463129, AID463225, AID504400, AID504460]; type: functional
Sequence of Sphingosine 1-phosphate receptor 1 (P21453 whole entry): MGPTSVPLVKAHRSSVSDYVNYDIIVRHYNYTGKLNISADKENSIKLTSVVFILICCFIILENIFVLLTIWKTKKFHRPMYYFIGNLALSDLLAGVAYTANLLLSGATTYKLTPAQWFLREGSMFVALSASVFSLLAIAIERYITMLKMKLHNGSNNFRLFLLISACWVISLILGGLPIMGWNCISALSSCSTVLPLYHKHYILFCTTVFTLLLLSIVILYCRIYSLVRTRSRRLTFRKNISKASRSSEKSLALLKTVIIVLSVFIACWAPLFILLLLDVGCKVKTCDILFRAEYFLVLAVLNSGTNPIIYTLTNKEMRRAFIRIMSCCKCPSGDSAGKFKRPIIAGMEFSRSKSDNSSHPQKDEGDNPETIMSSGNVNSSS

[21] = MDA-MB-231 cell growth inhibition, dose response, cytotoxicity control for RAD54 inhibitor project, CellTiter-Glo luminescence, cherry-pick (AID 651692); type: functional, cell-based

Sequence of Dual specificity protein kinase CLK1 (P49759 whole entry): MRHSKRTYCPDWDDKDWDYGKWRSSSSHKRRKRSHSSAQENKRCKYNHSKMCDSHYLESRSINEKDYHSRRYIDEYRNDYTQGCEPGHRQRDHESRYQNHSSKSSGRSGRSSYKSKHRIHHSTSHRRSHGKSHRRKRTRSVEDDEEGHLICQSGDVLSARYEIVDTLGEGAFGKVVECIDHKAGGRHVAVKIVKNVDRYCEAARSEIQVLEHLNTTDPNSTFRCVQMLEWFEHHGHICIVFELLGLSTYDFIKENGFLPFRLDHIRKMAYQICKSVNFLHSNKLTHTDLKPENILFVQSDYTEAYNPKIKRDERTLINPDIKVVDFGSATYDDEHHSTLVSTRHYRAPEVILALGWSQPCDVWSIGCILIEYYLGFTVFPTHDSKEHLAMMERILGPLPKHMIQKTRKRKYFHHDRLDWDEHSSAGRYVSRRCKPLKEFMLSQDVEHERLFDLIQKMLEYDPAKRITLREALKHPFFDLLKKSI

- AC50 [1]: 2.23 µM (active)
SMILES: Cc1csc(CN(C)c2ncnc3ccc(-c4ccc5c(c4)OCO5)cc23)n1

- AC50 [2]: 11.5 µM (active)
SMILES: CC1=CC2=NC(=O)CC(C)(C(=O)N(CC(=O)NC3CCCC3)Cc3ccccc3)N2C=C1 (stereo unspecified)

SMILES: COc1cc(-c2nc(-c3ccccc3)c(-c3cccs3)[nH]2)cc(OC)c1OC
- AC50 [3]: 50.3 µM (active)
- EC50 [4]: > 30 µM (not active)
- EC50 [5]: 1.21 µM (active)
- AC50 [6]: 29.9 µM (active)

SMILES: O=C1c2cccc3cc([N+](=O)[O-])cc(c23)C(=O)N1CCN1CCCC1 [PINAFIDE]
- EC50 [7]: 9.59 µM (active)
- EC50 [8]: 0.478 µM (active)
- AC50 [9]: 8.44 µM (active)
- IC50 [10]: > 80 µM (inactive)
- IC50 [11]: 44.7 µM (inactive)
- EC50 [12]: 5.47 µM (inconclusive)
- IC50 [13]: > 67.5 µM (inactive)
- IC50 [14]: > 66 µM (inactive)
- EC50 [15]: 5.03 µM (inconclusive)
- EC50 [16]: > 5.53 µM (not active)
- AC50 [17]: 2.94 µM (active)
- EC50 [18]: > 150 µM (inconclusive)
- AC50 [19]: 0.87 µM (active)
- EC50 [20]: 3.11 µM (active)
- AC50 [21]: 16 µM (inactive)
